Key:
Forced swim test = assay type: in vivo, C57BL/6J mice; conditions: 25 h after
5-HT5A = 5-HT5A (Homo sapiens, UniProt P47898); assay: G protein dissociation BRET assay; assay type: cell-based; conditions: read-out: KB (antagonist), 37°C, 60 minutes
5-HT2C = 5-HT2C (Homo sapiens, UniProt P28335); assay type: cell-based
α2B = α2B (Homo sapiens, UniProt P18089); assay: G protein dissociation BRET assay; assay type: cell-based; conditions: read-out: KB (antagonist)
α1B = α1B (Homo sapiens, UniProt P35368); assay: G protein dissociation BRET assay; assay type: cell-based; conditions: read-out: KB (antagonist)
α1B, sequence (P35368 whole entry): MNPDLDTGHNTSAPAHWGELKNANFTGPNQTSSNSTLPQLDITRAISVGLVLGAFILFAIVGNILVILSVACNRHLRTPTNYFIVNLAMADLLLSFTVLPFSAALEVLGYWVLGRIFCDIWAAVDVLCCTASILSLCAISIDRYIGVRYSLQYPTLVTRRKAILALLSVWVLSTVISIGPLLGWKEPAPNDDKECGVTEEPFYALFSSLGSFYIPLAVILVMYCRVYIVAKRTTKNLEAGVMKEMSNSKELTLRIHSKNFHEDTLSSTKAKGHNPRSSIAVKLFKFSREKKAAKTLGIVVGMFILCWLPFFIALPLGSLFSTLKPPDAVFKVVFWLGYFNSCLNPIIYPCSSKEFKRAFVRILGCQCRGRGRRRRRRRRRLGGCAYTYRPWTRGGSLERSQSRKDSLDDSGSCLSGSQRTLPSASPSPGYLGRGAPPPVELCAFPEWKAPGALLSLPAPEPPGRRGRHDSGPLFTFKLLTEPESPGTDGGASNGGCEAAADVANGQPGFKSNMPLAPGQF

OCT2 = OCT2 (Homo sapiens, UniProt O15244); assay: Transporter panel: OCT2
OCT2, sequence (O15244 whole entry): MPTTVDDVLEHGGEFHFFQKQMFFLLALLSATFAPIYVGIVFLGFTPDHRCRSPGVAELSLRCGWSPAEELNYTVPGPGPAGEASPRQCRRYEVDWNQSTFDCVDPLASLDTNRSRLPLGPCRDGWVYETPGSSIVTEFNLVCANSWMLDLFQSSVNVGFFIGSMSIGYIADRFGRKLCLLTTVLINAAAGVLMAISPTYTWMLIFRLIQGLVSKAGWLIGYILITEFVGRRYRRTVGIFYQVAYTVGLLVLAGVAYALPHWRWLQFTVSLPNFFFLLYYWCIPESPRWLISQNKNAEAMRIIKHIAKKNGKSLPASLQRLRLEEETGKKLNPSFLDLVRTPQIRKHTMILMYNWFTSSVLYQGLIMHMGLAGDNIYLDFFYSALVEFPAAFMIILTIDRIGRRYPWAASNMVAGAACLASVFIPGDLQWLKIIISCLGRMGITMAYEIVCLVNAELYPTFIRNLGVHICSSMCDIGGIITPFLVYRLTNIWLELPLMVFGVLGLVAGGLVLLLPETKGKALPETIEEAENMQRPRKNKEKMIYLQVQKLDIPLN

Nav1.5 sodium channels = Nav1.5 sodium channels (Homo sapiens, UniProt Q14524); assay: Off-target panel: Nav1.5
Nav1.5 sodium channels, sequence (Q14524 whole entry): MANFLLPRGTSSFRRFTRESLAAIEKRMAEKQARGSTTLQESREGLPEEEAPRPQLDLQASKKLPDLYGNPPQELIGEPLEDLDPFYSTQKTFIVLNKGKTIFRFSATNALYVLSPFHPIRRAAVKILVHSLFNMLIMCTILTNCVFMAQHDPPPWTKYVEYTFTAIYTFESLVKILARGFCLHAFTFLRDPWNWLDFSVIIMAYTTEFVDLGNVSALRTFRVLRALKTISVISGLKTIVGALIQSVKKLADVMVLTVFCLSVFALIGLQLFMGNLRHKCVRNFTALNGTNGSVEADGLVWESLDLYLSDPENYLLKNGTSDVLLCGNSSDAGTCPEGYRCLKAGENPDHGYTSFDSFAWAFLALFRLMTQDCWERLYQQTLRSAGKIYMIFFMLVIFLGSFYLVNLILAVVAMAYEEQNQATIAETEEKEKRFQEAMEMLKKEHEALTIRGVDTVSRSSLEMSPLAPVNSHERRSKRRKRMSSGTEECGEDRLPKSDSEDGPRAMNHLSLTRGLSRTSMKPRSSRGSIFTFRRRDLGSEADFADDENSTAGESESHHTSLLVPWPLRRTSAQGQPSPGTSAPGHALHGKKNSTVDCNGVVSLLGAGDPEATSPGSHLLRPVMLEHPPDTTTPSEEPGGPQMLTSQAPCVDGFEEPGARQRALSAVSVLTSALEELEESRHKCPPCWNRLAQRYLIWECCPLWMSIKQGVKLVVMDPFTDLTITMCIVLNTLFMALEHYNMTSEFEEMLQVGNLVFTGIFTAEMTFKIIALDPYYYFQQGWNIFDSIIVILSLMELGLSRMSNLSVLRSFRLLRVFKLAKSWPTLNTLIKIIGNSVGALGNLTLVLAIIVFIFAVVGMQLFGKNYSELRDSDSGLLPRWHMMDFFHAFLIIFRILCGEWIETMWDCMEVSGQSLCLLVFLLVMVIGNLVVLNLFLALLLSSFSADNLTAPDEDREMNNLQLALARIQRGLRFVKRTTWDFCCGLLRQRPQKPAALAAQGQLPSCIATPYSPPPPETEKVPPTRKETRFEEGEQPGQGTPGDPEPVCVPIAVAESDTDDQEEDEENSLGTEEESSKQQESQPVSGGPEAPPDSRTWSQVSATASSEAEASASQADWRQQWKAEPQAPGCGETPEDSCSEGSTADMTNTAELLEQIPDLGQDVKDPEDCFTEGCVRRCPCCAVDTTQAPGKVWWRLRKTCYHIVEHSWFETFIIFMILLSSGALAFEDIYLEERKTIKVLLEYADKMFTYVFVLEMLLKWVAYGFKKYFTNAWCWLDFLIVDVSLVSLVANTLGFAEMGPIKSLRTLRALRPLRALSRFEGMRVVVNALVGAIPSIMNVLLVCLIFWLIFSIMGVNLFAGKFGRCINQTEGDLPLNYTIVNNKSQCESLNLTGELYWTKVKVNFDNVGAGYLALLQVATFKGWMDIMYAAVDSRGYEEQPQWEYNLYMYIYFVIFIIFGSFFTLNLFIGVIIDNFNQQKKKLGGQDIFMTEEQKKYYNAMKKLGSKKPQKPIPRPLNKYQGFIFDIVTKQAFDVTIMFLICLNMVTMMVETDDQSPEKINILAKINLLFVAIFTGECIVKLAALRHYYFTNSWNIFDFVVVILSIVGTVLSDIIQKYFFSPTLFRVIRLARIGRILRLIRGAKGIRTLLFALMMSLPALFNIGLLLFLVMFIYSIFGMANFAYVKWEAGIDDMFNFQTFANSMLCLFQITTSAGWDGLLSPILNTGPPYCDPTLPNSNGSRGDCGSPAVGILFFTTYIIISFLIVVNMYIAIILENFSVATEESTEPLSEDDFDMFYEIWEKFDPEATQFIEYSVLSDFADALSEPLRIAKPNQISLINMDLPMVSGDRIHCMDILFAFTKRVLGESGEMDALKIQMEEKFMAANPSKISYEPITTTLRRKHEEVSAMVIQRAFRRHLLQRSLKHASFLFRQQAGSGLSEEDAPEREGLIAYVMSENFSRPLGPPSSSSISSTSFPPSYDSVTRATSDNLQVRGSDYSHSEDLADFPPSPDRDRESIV

Open field test = assay type: in vivo, C57BL/6J mice; conditions: 24 h after
5-HT7a = 5-HT7a (Homo sapiens, UniProt P34969); assay: G protein dissociation BRET assay; assay type: cell-based
5-HT7a, sequence (P34969 1-445 isoform P34969-2): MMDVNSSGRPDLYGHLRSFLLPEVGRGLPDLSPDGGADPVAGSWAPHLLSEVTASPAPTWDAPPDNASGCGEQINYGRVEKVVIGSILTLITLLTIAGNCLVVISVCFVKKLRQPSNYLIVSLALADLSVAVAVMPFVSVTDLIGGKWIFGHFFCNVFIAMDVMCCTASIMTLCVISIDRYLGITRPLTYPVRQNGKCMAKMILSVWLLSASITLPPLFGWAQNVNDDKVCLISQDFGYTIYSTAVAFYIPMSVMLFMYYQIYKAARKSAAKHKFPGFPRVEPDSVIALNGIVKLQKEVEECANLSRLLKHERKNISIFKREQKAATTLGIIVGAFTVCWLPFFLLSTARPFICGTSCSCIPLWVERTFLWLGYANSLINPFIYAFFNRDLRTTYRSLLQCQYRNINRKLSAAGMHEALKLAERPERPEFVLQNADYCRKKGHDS

5-HT2C, sequence (P28335 33-458): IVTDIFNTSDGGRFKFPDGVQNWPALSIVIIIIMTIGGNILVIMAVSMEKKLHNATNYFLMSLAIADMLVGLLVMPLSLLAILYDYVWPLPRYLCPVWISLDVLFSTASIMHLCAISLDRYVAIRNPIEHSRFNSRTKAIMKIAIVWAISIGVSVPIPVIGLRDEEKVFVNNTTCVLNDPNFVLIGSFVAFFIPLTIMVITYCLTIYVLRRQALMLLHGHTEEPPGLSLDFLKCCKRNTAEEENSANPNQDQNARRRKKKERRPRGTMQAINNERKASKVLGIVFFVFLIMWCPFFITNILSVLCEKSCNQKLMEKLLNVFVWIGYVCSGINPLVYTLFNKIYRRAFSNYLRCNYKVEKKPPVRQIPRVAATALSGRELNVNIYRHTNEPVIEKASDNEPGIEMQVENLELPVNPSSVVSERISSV
5-HT5A, sequence (P47898 whole entry): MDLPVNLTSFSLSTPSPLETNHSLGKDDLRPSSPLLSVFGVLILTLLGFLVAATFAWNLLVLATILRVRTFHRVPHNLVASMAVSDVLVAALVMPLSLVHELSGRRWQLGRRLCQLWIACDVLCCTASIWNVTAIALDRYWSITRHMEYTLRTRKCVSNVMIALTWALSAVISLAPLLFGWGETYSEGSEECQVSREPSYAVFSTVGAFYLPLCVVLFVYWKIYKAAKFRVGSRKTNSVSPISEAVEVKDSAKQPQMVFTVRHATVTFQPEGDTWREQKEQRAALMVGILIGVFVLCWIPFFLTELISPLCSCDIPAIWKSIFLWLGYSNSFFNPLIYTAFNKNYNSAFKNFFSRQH
α2B, sequence (P18089 whole entry): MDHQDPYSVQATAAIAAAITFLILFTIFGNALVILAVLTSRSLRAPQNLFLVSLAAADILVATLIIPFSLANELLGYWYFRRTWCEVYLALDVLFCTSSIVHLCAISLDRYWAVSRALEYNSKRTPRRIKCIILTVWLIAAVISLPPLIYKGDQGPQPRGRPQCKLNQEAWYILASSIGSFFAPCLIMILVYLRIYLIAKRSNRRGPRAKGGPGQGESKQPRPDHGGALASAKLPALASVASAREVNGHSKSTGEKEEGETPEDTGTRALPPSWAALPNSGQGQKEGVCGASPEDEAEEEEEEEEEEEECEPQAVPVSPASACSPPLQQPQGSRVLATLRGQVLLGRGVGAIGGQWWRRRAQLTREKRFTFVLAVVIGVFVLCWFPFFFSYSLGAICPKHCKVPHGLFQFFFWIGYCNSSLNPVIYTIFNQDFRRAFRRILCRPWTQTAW

## CCN(CC)C(=O)[C@@H]1C=C2c3cccc4[nH]c(Br)c(c34)C[C@H]2N(C)C1.CCN(CC)C(=O)[C@@H]1C=C2c3cccc4[nH]c(Br)c(c34)C[C@H]2N(C)C1.O=C(O)C(O)C(O)C(=O)O [2-Br-LSD, (6aR,9R)-2-bromolysergic acid diethylamide (2:1) (+)-tartrate]
Forced swim test; females, 1 mg/kg IP
  decrease in immobility: 35.18 ± 10.03 s
Forced swim test; males, 0.3 mg/kg IP
  decrease in immobility: 20.89 ± 8.249 s
Forced swim test; males, 1 mg/kg IP
  decrease in immobility: 27.27 ± 8.226 s
Forced swim test; males, 3 mg/kg IP
  decrease in immobility: 31.36 ± 8.226 s
5-HT5A
  Kb: 4.14 nM
5-HT2C
  β-arrestin2 recruitment agonism: no detectable β-arrestin2 recruitment agonism
α2B
  Kb: 79 nM
α1B
  Kb: 38 nM
OCT2
  IC50: 500 nM
Nav1.5 sodium channels
  EC50: 1100 nM
Open field test; 0.3, 1, 3 mg/kg IP, females and males
  locomotion (distance travelled): neither females nor males showed a significant increase in locomotion
Open field test; female mice, 1 mg/kg IP
  increase in time in the arena center: 88.18 ± 18.89 s
Open field test; male mice
  increased exploration of the open field center: not significant
5-HT7a
  activity at 5-HT7a: act as antagonists

Reference: publication PMC10112881 (Cell reports, 2023)
